Data published in article PMC6691587, “New CXCR1/CXCR2 inhibitors represent an effective treatment for kidney or head and neck cancers sensitive or refractory to reference treatments” (Theranostics, 2019).
Where two headings read alike, the source gives them in different places.

Tests used:
CAL27 = test: XTT cell viability assay, CAL27 HNSCC cells; type: cell-based, human; details: XTT assay, 48 h, SD 10%, mean of three experiments, read-out: IC50 27 (HNSCC)
Protocol: (§1) Fifty microliters of sodium 3′-[1-phenylaminocarbonyl)-3,4-tetrazolium]-bis(4-methoxy-6-nitro) benzene sulfonic acid hydrate (XTT) reagent was added to each well. The assay is based on the cleavage of the yellow tetrazolium salt XTT to form an orange formazan dye by metabolically active cells. This bio-reduction occurs in viable cells only and is related to NAD(P)H production through glycolysis. Therefore, the amount of formazan dye measured at 490 nm directly correlated with the number of metabolically active cells reflecting cell proliferation and viability. Each assay was performed in quadruplicate.

CAL33 = test: XTT cell viability assay, CAL33 HNSCC cells; type: cell-based, human; details: XTT assay, 48 h, SD 10%, mean of three experiments, read-out: IC50 33 (HNSCC)
Protocol: as §1

A498 = test: XTT cell viability assay, A498 RCC cells; type: cell-based, human; details: XTT assay, 48 h, SD 10%, mean of three experiments, read-out: IC50 498 (Kidney RCC)
Protocol: as §1

RCC4 = test: XTT cell viability assay, RCC4 RCC cells; type: cell-based, human; details: SD 10%, mean of three experiments, read-out: IC50 R4 (Kidney RCC)
Protocol: as §1

786-O = test: XTT cell viability assay, 786-O RCC cells; type: cell-based, human; details: XTT assay, 48 h, SD 10%, mean of three experiments, read-out: IC50 786 (Kidney RCC)
Protocol: as §1

MDA-MD-231 = test: XTT cell viability assay, breast cancer cells; type: cell-based, human; details: 48 h, SD 10%, mean of three experiments
Protocol: as §1

OCI-AML2 = test: XTT cell viability assay, OCI-AML2 AML cells; type: cell-based, human; details: SD 10%, mean of three experiments, read-out: IC50 L2 (AML)
Protocol: as §1

OCI-AML3 = test: XTT cell viability assay, OCI-AML3 AML cells; type: cell-based, human; details: SD 10%, mean of three experiments, read-out: IC50 L3 (AML)
Protocol: as §1

Molm13 = test: XTT cell viability assay, Molm13 AML cells; type: cell-based, human; details: SD 10%, mean of three experiments
Protocol: as §1

Molm14 = test: XTT cell viability assay, Molm14 AML cells; type: cell-based, human; details: SD 10%, mean of three experiments
Protocol: as §1

SKM1 = test: XTT cell viability assay, SKM1 MDS cells; type: cell-based, human; details: SD 10%, mean of three experiments, read-out: IC50 SK (MDS)
Protocol: as §1

K562 = test: XTT cell viability assay, K562 CML cells; type: cell-based, human; details: SD 10%, mean of three experiments
Protocol: as §1

[1] = test system: panel of human tumor cell lines; test: XTT screening on a panel of tumor cell lines; type: cell-based; details: for IC50: Homo sapiens; for anti-proliferation/survival activity on malignant cells: in words
Protocol: as §1

HuVEC = test: Boyden chamber migration assay; type: cell-based, human; details: CXCL7 50 ng/ml, 2.5 µmol/L compound
Protocol: CXCL7 or VEGFA-stimulated chemotaxis assays were monitored using modified Boyden chambers containing polycarbonate membranes (8-μm pores, Transwell; Corning, Sigma). Cells were seeded onto the upper side of the filters and chambers were placed on 24-well plates containing CXCL7 (50ng/ml) or VEGFA (50ng/ml). Cell migration was followed for 24 h at 37°C in 5% CO2. Migratory cells on the lower membrane surface were fixed in 3% paraformaldehyde, stained with 0.1% crystal violet.

786-O cells = test: Ectopic model of RCC (786-O xenograft); type: in vivo, nude (nu/nu) female mice; details: C29 100 µg i.p. three per week; danirixin 200 µg three times a week; sunitinib 50 mg/kg oral gavage five times a week
Protocol: These studies were carried out in strict accordance with the recommendations in the Guide for the Care and Use of Laboratory Animals. Our experiments were approved by the ''Comité National Institutionnel d'Ethique pour l'Animal de Laboratoire'' (reference: PEA-255 and PEA-277). Cells were injected subcutaneously into the flank of 5-week-old nude (nu/nu) female mice (Janvier). When the tumor reached 100 mm^3, mice were treated. The tumor volume was determined with a caliper (v = L*l2*0.5).
2- Seven million 786-O cells were injected subcutaneously.

[2] = read-out: IC50 for solid tumors (breast and kidney)
[3] = read-out: IC50 values for several cancer cell lines

Structure (SMILES) | IC50 (786-O; Homo sapiens, 786-0) [µM] | IC50 (MDA-MD-231; Homo sapiens) [µM] | IC50 (OCI-AML2; Homo sapiens, OCI-AML2, 48 h) [µM] | IC50 (OCI-AML3; Homo sapiens, OCI-AML-3, 48 h) [µM] | IC50 (Molm13; Homo sapiens, MOLM-13, 48 h) [µM] | IC50 (Molm14; Homo sapiens, MOLM-14, 48 h) [µM] | IC50 (SKM1; Homo sapiens, SKM-1, 48 h) [µM] | IC50 (K562; Homo sapiens, K562, 48 h) [µM] | IC50 [1, 3] [µM] | IC50 (CAL27; Homo sapiens, CAL-27) [µM] | IC50 (CAL33; Homo sapiens, CAL-33) [µM] | IC50 (A498; Homo sapiens, A498) [µM] | IC50 (RCC4; Homo sapiens, RCC4, 48 h) [µM] | other results
S=C(Nc1ccccc1)Nc1nc2ccccc2o1 [C19] | > 25 | > 25 | > 25 | > 25 | > 25 | > 25 | > 25 | > 25 |  | > 25 | > 25 | > 25 | > 25 | anti-proliferation/survival activity on malignant cells [1]: did not give anti-proliferation/survival activity
O=C(Nc1nc2ccc([N+](=O)[O-])cc2s1)Nc1ccccc1Cl [C28] | 5 | 8 | 10 | 10 | 5 | 10 | 10 | 7 | < 20 | 7 | 5 | 5 | 7 | 
CCOc1ccc2nc(NC(=O)Nc3ccccc3C)sc2c1 [C30] | 15 | 12 | 15 | 7 | 15 | 10 | 15 | 4 | < 20 | 5 | 15 | 15 | > 25 | 
CCOc1ccc2nc(NC(=O)Nc3ccc(OC)cc3)sc2c1 [C33] | > 25 | > 25 | > 25 | > 25 | > 25 | 25 | > 25 | > 25 |  | > 25 | > 25 | > 25 | > 25 | 
O=C(Nc1ccc([N+](=O)[O-])cc1O)Nc1ccccc1Br [SB225002, reference compound] |  |  |  |  |  |  |  |  |  |  |  |  |  | IC50 (CAL27): 100 µM; IC50 (CAL33): 80 µM; IC50 (A498): 70 µM; IC50 (RCC4; 48 h): 100 µM; IC50 (786-O): 100 µM; IC50 (MDA-MD-231): 100 µM; IC50 (OCI-AML2; 48 h): > 100 µM; IC50 (OCI-AML3; 48 h): 90 µM; IC50 (Molm13; 48 h, read-out: IC50 13 (AML)): > 100 µM; IC50 (Molm14; 48 h, read-out: IC50 14 (AML)): 90 µM; IC50 (SKM1; 48 h): > 100 µM; IC50 (K562; 48 h): > 100 µM; effect on RCC and HNSCC cells ([1]; 786, 786R, CAL27, CAL27R (Figure S7), compared to C29): modest effect
Cc1c(F)cccc1NC(=O)Nc1ccc(Cl)c(S(=O)(=O)[C@H]2CCCNC2)c1O [danirixin, reference compound] |  |  |  |  |  |  |  |  |  |  |  |  |  | CXCL7-dependent migration of HuVECs (HuVEC): no effect; efficacy on tumor growth, 786-O xenograft (786-O cells): equivalent efficacy
CCN(CC)CCNC(=O)c1c(C)[nH]c(/C=C2\C(=O)Nc3ccc(F)cc32)c1C [sunitinib] |  |  |  |  |  |  |  |  |  |  |  |  |  | efficacy on tumor growth, 786-O xenograft (786-O cells): equivalent efficacy

Continued, in another order:

IC50 (786-O; Homo sapiens, 786-0) [µM] | IC50 (MDA-MD-231; Homo sapiens) [µM] | IC50 (OCI-AML2; Homo sapiens, OCI-AML2, 48 h) [µM] | IC50 (OCI-AML3; Homo sapiens, OCI-AML-3, 48 h) [µM] | IC50 (Molm13; Homo sapiens, MOLM-13, 48 h) [µM] | IC50 (Molm14; Homo sapiens, MOLM-14, 48 h) [µM] | IC50 (SKM1; Homo sapiens, SKM-1, 48 h) [µM] | IC50 (K562; Homo sapiens, K562, 48 h) [µM] | IC50 [1, 3] [µM] | Structure (SMILES) | IC50 (CAL27; Homo sapiens, CAL-27) [µM] | IC50 (CAL33; Homo sapiens, CAL-33) [µM] | IC50 (A498; Homo sapiens, A498) [µM] | IC50 (RCC4; Homo sapiens, RCC4, 48 h) [µM] | other results
15 | 15 | 20 | > 25 | > 25 | 20 | > 25 | 10 |  | O=C(Nc1cccc(Cl)c1)Nc1cccc(Cl)c1 [C9] | 12 | 10 | 10 | 15 | IC50 [1, 2]: 10 to 20 µM
15 | 12 | 15 | 25 | > 25 | 15 | > 25 | 25 |  | O=C(Nc1ccc(Cl)cc1)Nc1ccccc1O [C12] | 12 | 10 | 10 | 15 | IC50 [1, 2]: 10 to 20 µM
20 | 20 | 20 | 22 | > 25 | 20 | > 25 | 12 | < 20 | O=C(Nc1ccc(Cl)cc1)Nc1nc2ccccc2[nH]1 [C16] | 15 | 15 | 9 | 20 | 
> 25 | > 25 | > 25 | > 25 | > 25 | > 25 | > 25 | > 25 |  | O=C(Nc1ccccc1)Nc1nc2ccccc2o1 [C18] | > 25 | > 25 | > 25 | > 25 | anti-proliferation/survival activity on malignant cells [1]: did not give anti-proliferation/survival activity
15 | > 25 | > 25 | 10 | 15 | 10 | 25 | 25 | < 20 | Cc1ccc2nc(NC(=O)Nc3ccccc3Cl)sc2c1 [C25] | 5 | 10 | 15 | > 25 | 
